Laboratory results published in patent US10155021B2, “Antimicrobial 4-oxoquinolizines” (Emergent Product Development Gaithersburg Inc., priority 2011, dated 2018).
Values after ≈ are worked out from the molar mass of the structure shown. Like-named read-outs stand apart in the source and are kept apart here.

Key:
[1] = tested on: S. aureus ATCC 43300 (MRSA, FQ-S); assay: MIC, selected panel of Gram-positive and Gram-negative strains (Example 5); format: cell-based, Staphylococcus aureus
A. baumannii ATCC 19606 = assay: as above; format: cell-based, Acinetobacter baumannii
[2] = tested on: S. aureus BAA-1556 (USA300-Type MRSA, FQ-R); assay: as above; format: cell-based, Staphylococcus aureus
S. aureus ATCC 25923 = assay: as above; format: cell-based
B. thailandensis E264 = assay: microbe, parasite or virus in culture; format: cell-based, Burkholderia thailandensis; settings: for MIC: Burkholderia thailandensis, E264, read-out: MIC B. thailandensis E264
P. aeruginosa ATCC 27853 = assay: MIC, selected panel of Gram-positive and Gram-negative strains (Example 5); format: cell-based
E. coli ATCC 25922 = assay: as above; format: cell-based, Escherichia coli
[3] = Staphylococcus aureus; read-out: MIC S. aureus ATCC 43300 (MRSA, FQ-S)
[4] = Acinetobacter baumannii, ATCC19606; read-out: MIC A. baumannii ATCC 19606
[5] = Staphylococcus aureus; read-out: MIC S. aureus BAA-1556 (USA300-Type MRSA, FQ-R)
[6] = Staphylococcus aureus, ATCC25923; read-out: MIC S. aureus ATCC 25923
[7] = Pseudomonas aeruginosa, ATCC27853; read-out: MIC P. aeruginosa ATCC 27853
[8] = Escherichia coli, ATCC25922; read-out: MIC E. coli ATCC 25922
[9] = Acinetobacter baumannii, ATCC19606, read-out: MIC A. baumannii ATCC 19606
[10] = Staphylococcus aureus, read-out: MIC S. aureus BAA-1556 (USA300-Type MRSA, FQ-R)
[11] = Staphylococcus aureus, ATCC25923, read-out: MIC S. aureus ATCC 25923
[12] = Pseudomonas aeruginosa, ATCC27853, read-out: MIC P. aeruginosa ATCC 27853
[13] = Escherichia coli, ATCC25922, read-out: MIC E. coli ATCC 25922
[14] = Staphylococcus aureus, read-out: MIC S. aureus ATCC 43300 (MRSA, FQ-S)

SMILES | MIC (B. thailandensis E264) | MIC (A. baumannii ATCC 19606; [9]) | MIC [2, 10] | MIC (S. aureus ATCC 25923; [11]) | MIC (P. aeruginosa ATCC 27853; [12]) | MIC (E. coli ATCC 25922; [13]) | MIC [1, 14] | also measured
Cc1c(-c2ccc(C(=O)C(F)(F)F)cc2)ccn2c(=O)c(C(=O)O)cc(C3CC3)c12 [Compound 63, 8-[4-(2,2,2-trifluoroacetyl)phenyl]-1-cyclopropyl-9-methyl-4-oxo-quinolizine-3-carboxylic acid] | 2 µg/mL (≈ 4.82 µM) |  |  |  |  |  |  | MIC [1, 3]: 0.032 µg/mL (≈ 0.077 µM); MIC (A. baumannii ATCC 19606; [4]): 2 µg/mL (≈ 4.82 µM); MIC [2, 5]: 1 µg/mL (≈ 2.41 µM); MIC (S. aureus ATCC 25923; [6]): 0.064 µg/mL (≈ 0.154 µM); MIC (P. aeruginosa ATCC 27853; [7]): > 8 µg/mL; MIC (E. coli ATCC 25922; [8]): 0.5 µg/mL (≈ 1.2 µM)
Cc1c(C2=CCNCC2)c(F)cn2c(=O)c(C(=O)[O-])cc(C3CC3)c12.[K+] [Compound 62K salt, potassium 8-(1,2,3,6-tetrahydropyridin-4-yl)-1-cyclopropyl-7-fluoro-9-methyl-4-oxo-4H-quinolizine-3-carboxylate] | 2 µg/mL | 1 µg/mL | 4 µg/mL | 0.25 µg/mL | 1 µg/mL | 0.032 µg/mL |  | 
Cc1c(-c2cnc(N)nc2)ccn2c(=O)c(C(=O)O)cc(C3CC3)c12 [Compound 57, 8-(2-aminopyrimidin-5-yl)-1-cyclopropyl-9-methyl-4-oxo-quinolizine-3-carboxylic acid] | > 8 µg/mL |  |  |  |  |  |  | MIC [1, 3]: 0.25 µg/mL (≈ 0.743 µM); MIC (A. baumannii ATCC 19606; [4]): 8 µg/mL (≈ 23.8 µM); MIC [2, 5]: 8 µg/mL (≈ 23.8 µM); MIC (S. aureus ATCC 25923; [6]): 0.25 to 0.5 µg/mL (≈ 0.743 to 1.49 µM); MIC (P. aeruginosa ATCC 27853; [7]): > 8 µg/mL; MIC (E. coli ATCC 25922; [8]): 1 µg/mL (≈ 2.97 µM)
Cc1c(-c2ccc(N)nc2)c(F)cn2c(=O)c(C(=O)[O-])cc(C3CC3)c12.[K+] [Compound 60K salt, potassium 8-(6-aminopyridin-3-yl)-1-cyclopropyl-7-fluoro-9-methyl-4-oxo-4H-quinolizine-3-carboxylate] | 0.5 µg/mL | 0.064 µg/mL | 0.125 µg/mL | 0.008 µg/mL | 2 µg/mL | 0.032 µg/mL |  | 
Cc1cn2c(=O)c(C(=O)[O-])cc(C3CC3)c2c(C)c1-c1ccc2[nH]ncc2c1.[K+] [Compound 88K salt, potassium 8-(1H-indazol-5-yl)-1-cyclopropyl-7,9-dimethyl-4-oxo-4H-quinolizine-3-carboxylate] | 1 µg/mL | 0.5 µg/mL | 0.5 µg/mL | 0.008 µg/mL | 4 µg/mL |  | 0.008 µg/mL | 
Cc1n[nH]c2ccc(-c3ccn4c(=O)c(C(=O)[O-])cc(C5CC5)c4c3C)cc12.[K+] [Compound 80K salt, potassium 8-(3-methyl-1H-indazol-5-yl)-1-cyclopropyl-9-methyl-4-oxo-4H-quinolizine-3-carboxylate] | 1 µg/mL | 0.25 µg/mL |  | ≤ 0.004 µg/mL | 4 µg/mL | 0.064 µg/mL | ≤ 0.004 µg/mL | 
Cc1cc(-c2ccn3c(=O)c(C(=O)[O-])cc(C4CC4)c3c2C)ccn1.[K+] [Compound 65K salt, potassium 8-(2-methylpyridin-4-yl)-1-cyclopropyl-9-methyl-4-oxo-4H-quinolizine-3-carboxylate] | 0.5 µg/mL | 0.25 µg/mL | 0.25 µg/mL | 0.016 µg/mL | 4 µg/mL | 0.032 to 0.064 µg/mL | 0.008 µg/mL | 
Cc1cn2c(=O)c(C(=O)[O-])cc(C3CC3)c2c(C)c1-c1ccc(N)nc1.[K+] [Compound 87K salt, potassium 8-(6-amino-pyridin-3-yl)-1-cyclopropyl-7,9-dimethyl-4-oxo-4H-quinolizine-3-carboxylate] | 4 µg/mL | 0.25 µg/mL | 8 µg/mL | 0.064 µg/mL | 8 µg/mL |  | 0.064 µg/mL | 
Cc1c(-c2ccc(N)c(CN)c2)ccn2c(=O)c(C(=O)[O-])cc(C3CC3)c12.[K+] [Compound 76K salt, potassium 8-(4-amino-3-(aminomethyl)phenyl)-1-cyclopropyl-9-methyl-4-oxo-4H-quinolizine-3-carboxylate] | 2 µg/mL | 0.25 µg/mL | 0.25 µg/mL | 0.016 µg/mL | 1 µg/mL | 0.032 µg/mL | 0.008 to 0.016 µg/mL | 
Cc1c(-c2ccncc2F)ccn2c(=O)c(C(=O)[O-])cc(C3CC3)c12.[K+] [Compound 58K salt, potassium 8-(3-fluoropyridin-4-yl)-1-cyclopropyl-9-methyl-4-oxo-4H-quinolizine-3-carboxylate] | 1 µg/mL | 1 µg/mL | 1 to 2 µg/mL | 0.064 µg/mL | > 8 µg/mL | 0.25 µg/mL | 0.064 µg/mL | 
Cc1c(-c2ccc(N3CCNCC3)nc2)ccn2c(=O)c(C(=O)[O-])cc(C3CC3)c12.[K+] [Compound 84K salt, potassium 8-(6-(piperazin-1-yl)pyridin-3-yl)-1-cyclopropyl-9-methyl-4-oxo-4H-quinolizine-3-carboxylate] | 8 µg/mL | 2 µg/mL | 2 µg/mL |  | 8 µg/mL | 0.125 to 0.25 µg/mL |  | 
Cc1c(-c2ccc(O)nc2)ccn2c(=O)c(C(=O)[O-])cc(C3CC3)c12.[K+] [Compound 55K salt, potassium 8-(6-hydroxypyridin-3-yl)-1-cyclopropyl-9-methyl-4-oxo-4H-quinolizine-3-carboxylate] | 8 µg/mL | 8 µg/mL | 8 µg/mL | 0.5 µg/mL | > 8 µg/mL | 0.5 µg/mL | 0.125 to 0.25 µg/mL | 
COc1c(-c2ccc3[nH]ncc3c2)ccn2c(=O)c(C(=O)[O-])cc(C3CC3)c12.[K+] [Compound 90K salt, potassium 8-(1H-indazol-5-yl)-1-cyclopropyl-9-methoxy-4-oxo-4H-quinolizine-3-carboxylate] | 2 µg/mL | 0.5 µg/mL | 0.25 µg/mL | 0.008 µg/mL | 4 µg/mL |  | 0.008 µg/mL | 
Cc1c(-c2ccc3c(c2)CCN3)ccn2c(=O)c(C(=O)[O-])cc(C3CC3)c12.[K+] [Compound 77K salt, potassium 8-(indolin-5-yl)-1-cyclopropyl-9-methyl-4-oxo-4H-quinolizine-3-carboxylate] | 1 µg/mL | 0.25 µg/mL | 0.5 µg/mL | 0.016 µg/mL | 4 µg/mL |  | 0.016 µg/mL | 
CNc1ccc(-c2ccn3c(=O)c(C(=O)[O-])cc(C4CC4)c3c2C)cc1C.[K+] [Compound 69K salt, potassium 8-(3-methyl-4-(methylamino)phenyl)-1-cyclopropyl-9-methyl-4-oxo-4H-quinolizine-3-carboxylate] | 1 µg/mL | 0.25 to 0.5 µg/mL | 0.25 µg/mL | ≤ 0.004 µg/mL | 4 µg/mL |  | ≤ 0.004 µg/mL | 
Cc1c(-c2ccc3[nH]ncc3c2)c(F)cn2c(=O)c(C(=O)[O-])cc(C3CC3)c12.[K+] [Compound 75K salt, potassium 8-(1H-indazol-5-yl)-1-cyclopropyl-7-fluoro-9-methyl-4-oxo-4H-quinolizine-3-carboxylate] | 0.25 µg/mL | 0.064 µg/mL | 0.032 µg/mL | ≤ 0.004 µg/mL | 1 µg/mL | 0.032 µg/mL | ≤ 0.004 µg/mL | 
CC(=O)NCc1ccc(-c2ccn3c(=O)c(C(=O)[O-])cc(C4CC4)c3c2C)cc1.[K+] [Compound 64K salt, potassium 8-(4-(Acetamidomethyl)phenyl)-1-cyclopropyl-9-methyl-4-oxo-4H-quinolizine-3-carboxylate] | 2 µg/mL | 0.5 µg/mL | 0.5 µg/mL | 0.032 µg/mL | 8 µg/mL |  | 0.032 µg/mL | 
Cc1c(-c2ccc(CN)cc2)c(F)cn2c(=O)c(C(=O)[O-])cc(C3CC3)c12.[K+] [Compound 6K salt] |  |  |  |  |  |  |  | MIC S. aureus ATCC 43300 (MRSA, FQ-S) [1]: 0,064 μg/mL; MIC A. baumannii ATCC 19606 (A. baumannii ATCC 19606): 1 µg/mL; MIC S. aureus BAA-1556 (USA300-Type MRSA, FQ-R) [2]: 1 µg/mL; MIC B. thailandensis E264 (B. thailandensis E264): 4 µg/mL; MIC E. coli ATCC 25922 (E. coli ATCC 25922): 0.064 to 0.125 µg/mL
COc1c(-c2ccc(N)nc2)ccn2c(=O)c(C(=O)[O-])cc(C3CC3)c12.[K+] [Compound 89K salt, potassium 8-(6-amino-pyridin-3-yl)-1-cyclopropyl-9-methoxy-4-oxo-4H-quinolizine-3-carboxylate] | 4 µg/mL | 0.5 µg/mL | 2 µg/mL | 0.032 µg/mL | 8 µg/mL |  | 0.032 µg/mL | 
Cc1c(-c2ccc3cn[nH]c3c2)ccn2c(=O)c(C(=O)[O-])cc(C3CC3)c12.[K+] [Compound 83K salt, potassium 8-(1H-indazol-6-yl)-1-cyclopropyl-9-methyl-4-oxo-4H-quinolizine-3-carboxylate] |  | 0.032 µg/mL | 0.064 µg/mL | ≤ 0.004 µg/mL | 0.5 µg/mL | 0.016 µg/mL | ≤ 0.004 µg/mL | 
Cc1cc(-c2ccn3c(=O)c(C(=O)[O-])cc(C4CC4)c3c2C)cnc1N.[K+] [Compound 79K salt, potassium 8-(6-amino-5-methylpyridin-3-yl)-1-cyclopropyl-9-methyl-4-oxo-4H-quinolizine-3-carboxylate] | 0.5 µg/mL | 0.064 µg/mL |  | ≤ 0.004 µg/mL | 2 µg/mL | 0.016 µg/mL | ≤ 0.004 µg/mL | 
